Test results: patent US20100035858A1, “Novel Compositions and Methods for Binding and Inhibiting 5-HT4 Receptor” (Immune Control, Inc., priority 2008, published 2010)
Entries after “also recorded” stand apart in the source; their conditions may differ.

Experiments:
Female Lewis rats = experiment: Toxicity in Female Lewis rats; assay type: in vivo; details: 100 mg/kg ip, in comparison with PBS control
Method: The next set of experiments was designed to determine the toxicity of the compounds. Each compound was administered to Female Lewis rats at a dose of 100 mg/kg via ip administration.

[1] = tested on: rat model of collagen-induced arthritis; experiment: Rat model of collagen-induced arthritis, ankle diameter; assay type: in vivo; details: for reduction of ankle diameter: 10 mg/kg ip daily, about 3 days, caliper measurement; for efficacy in reducing ankle diameter compared with Enbrel: rheumatoid arthritis rat model, versus Enbrel
Method: The next set of experiments was designed to test the ability of the compounds of the invention on a rat model of collagen-induced arthritis. Briefly, Female Lewis rats were immunized with bovine type 2 collagen 2 mg/mL in 0.01N HAc mixed 1:1 w/ FIA injected id 0.1 mL at each of three sites on back (Rosloniec, E. F., A. H. Kang, L. K. Myers, M. A. Cremer. 1996. Collagen-induced arthritis. R. Coico, and E. Shevach, eds. Current Protocols in Immunology 15.5.1. Weily & Sons, New York.).
FIG. 2 depicts a schematic of the collagen-induced arthritis protocol. Briefly, a test compound of the invention is delivered ip at 10 mg/kg daily, for about 3 days.
FIG. 4 depicts ICI 1260, 1259, 848, 849, 761, 715, and 847 with respect to Enbrel. Additional testing for the effectiveness of compounds ICI 1260, 1259, 848, 849, 761, 715, and 847 at various concentrations (10 mg/kg, 2 mg/kg, 0.4 mg/kg) were conducted, as illustrated in FIGS. 5A-5G. A dose response curve was constructed to illustrate the efficacy of the seven compounds (FIG. 6).

MDR1-MDCK = MDR1-MDCK Permeability (potential to cross the blood-brain barrier); details: for Brain Penetration Classification: from A-B Papp and efflux ratio
[2] = tested on: B-cell neoplastic cell line RPMI 8226; experiment: Inhibition of proliferation of RPMI cells; assay type: cell-based; details: RPMI cell viability, FIG. 1
From the text: The next set of experiments was designed to assess compounds that have low levels of brain penetration for the ability of the test compounds to inhibit cellular proliferation. An exemplary in vitro assay is to screen for the ability of the test compounds to inhibit proliferation of the B-cell neoplastic cell line RPMI 8226 (a plasmacytoma derived from a multiple myeloma patient (Matsuoka, et al., 1967, Proc. Soc. Exp. Biol. Med. 125: 1246-1250). However other cell line can be used such as, U266 (established from an IgE-secreting myeloma patient (Nilsson, et al., 1970, Clin. Exp. Immunol., 7: 477-489) and ARH77 (an EBV transformed plasma cell leukemia (Burk, et al., 1978, Cancer Res. 38: 2508-2513).
FIG. 1 is a graph depicting the effects on the test compounds on RPMI cell viability.

SMILES: CNCC(=O)NCCCN1CCN(CCCN2c3ccccc3Sc3ccc(C(F)(F)F)cc32)CC1 [ICI-00823]
- toxicity (Female Lewis rats): not toxic
- reduction of ankle diameter [1]: decrease the ankle diameter to a desirable level

SMILES: FC(F)(F)c1ccc2c(c1)N(CCCCN1CCNCC1)c1ccccc1S2 [ICI-00890]
- Brain Penetration Classification (MDR1-MDCK): Low (3) A-B Papp > 3.0 and Efflux Ratio > 10: Low)

SMILES: NCCCN1CCN(CCCN2c3ccccc3Sc3ccc(C(F)(F)F)cc32)CC1 [ICI-00760]
- Brain Penetration Classification (MDR1-MDCK): Low (3) A-B Papp > 3.0 and Efflux Ratio > 10: Low)

SMILES: OCCN1CCN(CCCN2c3ccccc3Sc3ccc(C(F)(F)F)cc32)CC1 [ICI-01176]
- % Recovery A-B (MDR1-MDCK; MDR1-MDCK, A-B direction): 35%
- Papp A-B (MDR1-MDCK; MDR1-MDCK, A-B direction): 0.78 ×10⁻⁶ cm/s
- % Recovery B-A (MDR1-MDCK; MDR1-MDCK, B-A direction): 55%
- Papp B-A (MDR1-MDCK; MDR1-MDCK, B-A direction): 34.2 ×10⁻⁶ cm/s
- Efflux (MDR1-MDCK; MDR1-MDCK, efflux ratio): 44
- Brain Penetration Classification (MDR1-MDCK): Low (3) A-B Papp > 3.0 and Efflux Ratio > 10: Low)

SMILES: FC(F)(F)c1ccc2c(c1)N(CCCN1CCNCC1)c1ccccc1S2 [ICI-00685]
- Brain Penetration Classification (MDR1-MDCK): Low (3) A-B Papp > 3.0 and Efflux Ratio > 10: Low)

SMILES: NCCCN1CCC(CCCN2c3ccccc3Sc3ccc(C(F)(F)F)cc32)CC1 [ICI-00847]
- Brain Penetration Classification (MDR1-MDCK): Low (3) A-B Papp > 3.0 and Efflux Ratio > 10: Low)
- ability to inhibit proliferation of RPMI cells ([2]; listed as ICI-847): able to inhibit the proliferation of RPMI cells
- reduction of ankle diameter ([1]; listed as ICI-847): decrease the ankle diameter to a desirable level; also recorded: most desirable reduction of ankle diameter
- efficacy in reducing ankle diameter compared with Enbrel [1]: more effective in reducing the ankle diameter than Enbrel

SMILES: CC(=O)NCCN1CCC(CCCN2c3ccccc3Sc3ccc(C(F)(F)F)cc32)CC1 [ICI-00850]
- Brain Penetration Classification (MDR1-MDCK): Low (3) A-B Papp > 3.0 and Efflux Ratio > 10: Low)

SMILES: NCCN1CCC(CCCN2c3ccccc3Sc3ccc(C(F)(F)F)cc32)CC1 [ICI-00846]
- Brain Penetration Classification (MDR1-MDCK): Low (3) A-B Papp > 3.0 and Efflux Ratio > 10: Low)

SMILES: CN(C)CCN1CCN(CCCN2c3ccccc3Sc3ccc(C(F)(F)F)cc32)CC1 [ICI-00738]
- toxicity (Female Lewis rats): not toxic

SMILES: FC(F)(F)c1ccc2c(c1)N(CCCC1CCNCC1)c1ccccc1S2 [ICI-00824]
- toxicity (Female Lewis rats): not toxic

SMILES: N#Cc1ccc2c(c1)N(CCCN1CCN(CCN)CC1)c1ccccc1S2 [ICI-00894]
- Brain Penetration Classification (MDR1-MDCK): Low (3) A-B Papp > 3.0 and Efflux Ratio > 10: Low)

SMILES: CN(C)S(=O)(=O)c1ccc2c(c1)N(CCCN1CCN(CCN)CC1)c1ccccc1S2 [ICI-00715]
- toxicity (Female Lewis rats): not toxic
- ability to inhibit proliferation of RPMI cells [2]: able to inhibit the proliferation of RPMI cells
- reduction of ankle diameter [1]: decrease the ankle diameter to a desirable level
- efficacy in reducing ankle diameter compared with Enbrel [1]: more effective in reducing the ankle diameter than Enbrel

SMILES: CN(C)CCCN1CCC(CCCN2c3ccccc3Sc3ccc(C(F)(F)F)cc32)CC1 [ICI-01505]
- Brain Penetration Classification (MDR1-MDCK): Low (3) A-B Papp > 3.0 and Efflux Ratio > 10: Low)

SMILES: OCCN1CCN(CCCN2c3ccccc3Sc3ccc(C(F)(F)F)cc32)CC1 [ICI-01175, fluphenazine, reference compound]
- Brain Penetration Classification (MDR1-MDCK): High (1) A-B Papp > 3.0 and Efflux Ratio < 3.0: High)

SMILES: NCC(=O)NCCCN1CCN(CCCN2c3ccccc3Sc3ccc(C(F)(F)F)cc32)CC1 [ICI-00822]
- Brain Penetration Classification (MDR1-MDCK): Low (3) A-B Papp > 3.0 and Efflux Ratio > 10: Low)

SMILES: CNCC(=O)NCCN1CCN(CCCN2c3ccccc3Sc3ccc(C(F)(F)F)cc32)CC1 [ICI-00758]
- toxicity (Female Lewis rats): not toxic
- Brain Penetration Classification (MDR1-MDCK): Low (3) A-B Papp > 3.0 and Efflux Ratio > 10: Low)

SMILES: NCC(N)C(=O)NCCN1CCN(CCCN2c3ccccc3Sc3ccc(C(F)(F)F)cc32)CC1 (centres unmarked) [ICI-761]
- ability to inhibit proliferation of RPMI cells [2]: able to inhibit the proliferation of RPMI cells
- reduction of ankle diameter [1]: decrease the ankle diameter to a desirable level
- efficacy in reducing ankle diameter compared with Enbrel [1]: more effective in reducing the ankle diameter than Enbrel
